US20150164762A1, “USE OF ETHANOLAMINE PHOSPHATE” (priority 2012, published 2015)

System: BEAS-2B
Assay: Comprehensive gene expression analysis with Whole Human Genome DNA microarray after EP treatment
Assay type: cell-based
Experimental: Cells of the established normal human airway epithelial cell line BEAS-2B were used in the experiment. These cells were expansively cultured in 10% FBS RPMI-1640, and seeded at a density of 1×10^5/cm^2 on a 24-well plate. After 24 hours 0.1% FBS RPMI-1640 was substituted, and EP was administered to a final concentration of 0 or 1 mM (n=4). After 24 hours, the cells were used as the DNA microarray samples. RNA was extracted using a QIAGEN RNeasy Mini Kit. The DNA microarray test was performed using a Whole Human Genome DNA microarray 4×44K (Agilent), and the necessary labeling reagents and the like for the DNA microarray test were all from Agilent. The DNA microarray test data were analyzed statistically with GeneSpring (Agilent) dedicated analysis software, and gene function analysis (Gene Ontology (GO) analysis) was performed based on differential expression. The purpose of the GO analysis is to determine stochastically the degree to which gene sets with statistically significant differential expression correspond to known functional classification gene sets. […] The p-value is calculated according to the following formula.

[1] = probe A_24_P215804, 1 mM EP, 24 h
[2] = probe A_24_P218265, 1 mM EP, 24 h
[3] = probe A_24_P226782, 1 mM EP, 24 h
[4] = probe A_24_P231104, 1 mM EP, 24 h
[5] = probe A_24_P261169, 1 mM EP, 24 h
[6] = probe A_24_P273157, 1 mM EP, 24 h
[7] = probe A_24_P295543, 1 mM EP, 24 h
[8] = probe A_24_P302833, 1 mM EP, 24 h
[9] = probe A_24_P307580, NM_001098523, EP vs control
[10] = probe A_24_P313354, 1 mM EP, 24 h
[11] = probe A_24_P313504, 1 mM EP, 24 h
[12] = probe A_24_P317708, NM_138969, EP vs control
[13] = probe A_24_P319113, 1 mM EP, 24 h
[14] = probe A_24_P319983, 1 mM EP, 24 h
[15] = probe A_24_P388659, 1 mM EP, 24 h
[16] = probe A_24_P389409, NM_006129, EP vs control
[17] = probe A_24_P389457, 1 mM EP, 24 h
[18] = probe A_24_P413470, 1 mM EP, 24 h
[19] = probe A_24_P722216, NM_018706, EP vs control
[20] = probe A_24_P839629, 1 mM EP, 24 h
[21] = probe A_24_P876522, NM_001008397, EP vs control
[22] = probe A_24_P914519, S67289, EP vs control
[23] = probe A_24_P928052, 1 mM EP, 24 h
[24] = probe A_24_P934477, AJ000096, EP vs control
[25] = probe A_24_P935986, 1 mM EP, 24 h
[26] = probe A_24_P937256, 1 mM EP, 24 h
[27] = probe A_24_P937317, NM_001014336, EP vs control
[28] = probe A_24_P3305312, 1 mM EP, 24 h
[29] = probe A_24_P9284523, 1 mM EP, 24 h
[30] = probe A_32_P45009, NM_005896, EP vs control
[31] = probe A_32_P75094, 1 mM EP, 24 h
[32] = probe A_32_P89691, NM_003104, EP vs control
[33] = probe A_32_P94798, 1 mM EP, 24 h
[34] = probe A_32_P171043, 1 mM EP, 24 h
[35] = probe A_32_P230808, 1 mM EP, 24 h

In the case of NCCOP(=O)(O)O [EP, Ethanolamine phosphate], the “CKLF expression R*: Ratio to control” value [1] is reported as 1.551 times, the “CKLF expression log2 [ratio]” value [1] is reported as 0.633 and the “TNFRSF10B expression R*: Ratio to control” value [2] is reported as 0.475 times. The “TNFRSF10B expression log2 [ratio]” value [2] was −1.073, the “SOX7 expression R: Ratio to control” value [3] was 0.607 times and the “SOX7 expression log2 [ratio]” value [3] was −0.720. The “LEPR expression R*: Ratio to control” value [4] was 1.659 times, the “LEPR expression log2 [ratio]” value [4] was 0.730 and the “SEMA4D expression R: Ratio to control” value [5] was 0.558 times. For the same compound, the “SEMA4D expression log2 [ratio]” value [5] was −0.842, the “OBSCN expression R: Ratio to control” value [6] was 0.654 times and the “OBSCN expression log2 [ratio]” value [6] was −0.613. The “BLOC1S2 expression R*: Ratio to control” value [7] was 0.384 times, the “BLOC1S2 expression log2 [ratio]” value [7] was −1.381 and the “APPL1 expression R*: Ratio to control” value [8] was 1.723 times. For the same compound, the “APPL1 expression log2 [ratio]” value [8] was 0.785, the “HTATIP2 gene expression, R* ratio to control” value [9] was 1.821 times and the “HTATIP2 gene expression, log2 [ratio]” value [9] was 0.865. For the same compound, the “NR2F2 expression R*: Ratio to control” value [10] was 1.746 times, the “NR2F2 expression log2 [ratio]” value [10] was 0.804 and the “PLK1 expression R*: Ratio to control” value [11] was 1.939 times. The “PLK1 expression log2 [ratio]” value [11] was 0.955, the “SDR16C5 gene expression, R* ratio to control” value [12] was 2.349 times and the “SDR16C5 gene expression, log2 [ratio]” value [12] was 1.232. The “P2RX7 expression R: Ratio to control” value [13] was 0.586 times, the “P2RX7 expression log2 [ratio]” value [13] was −0.772 and the “BCL10 expression R*: Ratio to control” value [14] was 0.571 times. The “BCL10 expression log2 [ratio]” value [14] was −0.310, the “ARHGAP24 expression R*: Ratio to control” value [15] was 1.745 times and the “ARHGAP24 expression log2 [ratio]” value [15] was 0.803. For the same compound, the “BMP1 gene expression, R* ratio to control” value [16] was 0.650 times, the “BMP1 gene expression, log2 [ratio]” value [16] was −0.622 and the “CDKN1A expression R*: Ratio to control” value [17] was 0.294 times. For the same compound, the “CDKN1A expression log2 [ratio]” value [17] was −1.768, the “TP73 expression R*: Ratio to control” value [18] was 0.482 times and the “TP73 expression log2 [ratio]” value [18] was −1.054. For the same compound, the “DHTKD1 gene expression, R* ratio to control” value [19] was 1.429 times, the “DHTKD1 gene expression, log2 [ratio]” value [19] was 0.515 and the “ZMAT3 expression R*: Ratio to control” value [20] was 0.654 times. For the same compound, the “ZMAT3 expression log2 [ratio]” value [20] was −0.612, the “GPX8 gene expression, R* ratio to control” value [21] was 1.602 times and the “GPX8 gene expression, log2 [ratio]” value [21] was 0.680. The “CYBB gene expression, R* ratio to control” value [22] was 1.958 times, the “CYBB gene expression, log2 [ratio]” value [22] was 0.968 and the “NRP1 expression R*: Ratio to control” value [23] was 1.990 times. The “NRP1 expression log2 [ratio]” value [23] was 0.993, the “CBR3 gene expression, R* ratio to control” value [24] was 2.429 times and the “CBR3 gene expression, log2 [ratio]” value [24] was 1.281. The “BCAT1 expression R*: Ratio to control” value [25] was 1.721 times, the “BCAT1 expression log2 [ratio]” value [25] was 0.783 and the “RELA expression R*: Ratio to control” value [26] was 1.611 times. For the same compound, the “RELA expression log2 [ratio]” value [26] was 0.688, the “IL31 gene expression, R* ratio to control” value [27] was 0.296 times and the “IL31 gene expression, log2 [ratio]” value [27] was −1.758. The “BBC3 expression R*: Ratio to control” value [28] was 0.366 times, the “BBC3 expression log2 [ratio]” value [28] was −1.452 and the “MAP3K10 expression R*: Ratio to control” value [29] was 0.570 times. The “MAP3K10 expression log2 [ratio]” value [29] was −0.810, the “IDH1 gene expression, R* ratio to control” value [30] was 1.486 times and the “IDH1 gene expression, log2 [ratio]” value [30] was 0.571. The “A1FM2 expression R*: Ratio to control” value [31] was 0.399 times, the “A1FM2 expression log2 [ratio]” value [31] was −1.327 and the “SORD gene expression, R* ratio to control” value [32] was 1.506 times. The “SORD gene expression, log2 [ratio]” value [32] was 0.590, the “ANXA2 expression R*: Ratio to control” value [33] was 1.614 times and the “ANXA2 expression log2 [ratio]” value [33] was 0.691. For the same compound, the “CCBE1 expression R*: Ratio to control” value [34] was 1.890 times, the “CCBE1 expression log2 [ratio]” value [34] was 0.918 and the “KNG1 expression R*: Ratio to control” value [35] was 0.358 times. The “KNG1 expression log2 [ratio]” value [35] was −1.484, the FAS expression (probe A—23_P63896, 1 mM EP, 24 h) was 0.36 fold and the “catalase (CAT) expression” value (probe A—23_P105138, 1 mM EP, 24 h) was “increased expression”. The “NADPH:quinone reductase-1 (NQ01) expression” value (probe A—23_P206661, 1 mM EP, 24 h) was “increased expression” and the “thioredoxin (TXN) expression increase” value (probe A—24_P175519, 1 mM EP, 24 h) was 1.4 times.
